In PMC6900016, “Synthesis of Indomorphan Pseudo‐Natural Product Inhibitors of Glucose Transporters GLUT‐1 and ‐3” (Angewandte Chemie (International Ed. in English), 2019):

Experiments:
Test in all cases: cells
Set-up in all cases: Cell growth inhibition, sulforhodamine B total protein staining
HT1080 = settings: Homo sapiens, HT-1080; 72 h growth; read-out: Cell growth inhibition IC50/µM
Method: (§1) Cell panel profiling A panel of 94 cell lines was exposed to Glupin for 72 h to assess the influence on cell growth (Oncolead, Germany). Cell growth was determined using sulforhodamine B assay. Measurements were performed using a total protein staining protocol. Briefly, after treatement cells were fixed addition of 10% TCA (for adherent growing cells) or 50% TCA (for semi-adherent growing cells or cells growing in suspension). After an incubation at 4°C for 1 h, plates were washed twice with 400 μl of deionized water and dried. Cells were then stained with 100 μl of 0.04% wt/v sulforhodamine B. Plates were incubated at room temperature for at least 30 min and washed six times with 1% acetic acid to remove unbound stain. […] This effect was much stronger at a physiological glucose concentration (5 mM; Figure 5 b,c). […] IC50 values lower than 300 nM were obtained for more than 20 cell lines, whereas 24 cell lines were not affected by the compound, among them the peripheral blood mononuclear control cells (PBMCs). Sensitivity to Glupin was detected across various tissue types (Table S6).

IMR90 = settings: Homo sapiens, IMR-90; 72 h growth; read-out: Cell growth inhibition IC50/µM
Method: as §1

UO31 = settings: Homo sapiens, UO-31; 72 h growth; read-out: Cell growth inhibition IC50/µM
Method: as §1

DU145 = settings: Homo sapiens, DU-145; 72 h growth; read-out: Cell growth inhibition IC50/µM
Method: as §1

OVCAR4 = settings: Homo sapiens, OVCAR-4; 72 h growth; read-out: Cell growth inhibition IC50/µM
Method: as §1

ASPC1 = settings: Homo sapiens, ASPC1; 72 h growth; read-out: Cell growth inhibition IC50/µM
Method: as §1

PANC1005 = settings: Homo sapiens, Panc1005; 72 h growth; read-out: Cell growth inhibition IC50/µM
Method: as §1

HS729 = settings: 72 h growth; read-out: Cell growth inhibition IC50/µM
Method: as §1

NCIH358M = settings: NCI-H358M; 72 h growth; read-out: Cell growth inhibition IC50/µM
Method: as §1

UMUC3 = settings: Homo sapiens, UMUC3; 72 h growth; read-out: Cell growth inhibition IC50/µM
Method: as §1

MG63 = settings: Homo sapiens, MG-63; 72 h growth; read-out: Cell growth inhibition IC50/µM
Method: as §1

SKMEL28 = settings: Homo sapiens, SK-MEL-28; 72 h growth; read-out: Cell growth inhibition IC50/µM
Method: as §1

TE671 = settings: Homo sapiens, TE-671; 72 h growth; read-out: Cell growth inhibition IC50/µM
Method: as §1

HL60 = settings: Homo sapiens, HL-60; 72 h growth; read-out: Cell growth inhibition IC50/µM
Method: as §1

GRANTA519 = settings: Homo sapiens, Granta-519; 72 h growth; read-out: Cell growth inhibition IC50/µM
Method: as §1

J82 = settings: Homo sapiens, J82; 72 h growth; read-out: Cell growth inhibition IC50/µM
Method: as §1

SKNSH = settings: Homo sapiens, SK-N-SH; 72 h growth; read-out: Cell growth inhibition IC50/µM
Method: as §1

COLO678 = settings: Homo sapiens, COLO-678; 72 h growth; read-out: Cell growth inhibition IC50/µM
Method: as §1

HEK293 = settings: Homo sapiens, HEK293; 72 h growth; read-out: Cell growth inhibition IC50/µM
Method: as §1

C33A = settings: Homo sapiens, C-33-A; 72 h growth; read-out: Cell growth inhibition IC50/µM
Method: as §1

MDAMB231 = settings: Homo sapiens, MDA-MB-231; 72 h growth; read-out: Cell growth inhibition IC50/µM
Method: as §1

JAR = settings: 72 h growth; read-out: Cell growth inhibition IC50/µM
Method: as §1

HEPG2 = settings: Homo sapiens, HepG2; 72 h growth; read-out: Cell growth inhibition IC50/µM
Method: as §1

IC50 (HT1080): 0.118 µM
IC50 (DU145): 0.317 µM
IC50 (OVCAR4): 1.41 µM
IC50 (ASPC1): 0.695 µM
IC50 (PANC1005): 0.269 µM
IC50 (SKMEL28): > 30 µM
IC50 (HL60): 0.112 µM
IC50 (SKNSH): 0.084 µM
IC50 (COLO678): > 30 µM
IC50 (MDAMB231): 8.38 µM
IC50 (HEPG2): > 30 µM
SMILES: CCOC(=O)Cn1c2c(c3ccccc31)C[C@@H]1C[C@H]2C(OC)CN1C(=O)c1cccnc1SC (single isomer, unassigned; (+)) [(+)-5a, Glupin]
IC50 (IMR90): > 30 µM
IC50 (UO31): 0.109 µM
IC50 (HS729): > 30 µM
IC50 (NCIH358M): > 30 µM
IC50 (UMUC3): 0.032 µM
IC50 (MG63): > 30 µM
IC50 (TE671): 0.299 µM
IC50 (GRANTA519): > 30 µM
IC50 (J82): 7.25 µM
IC50 (HEK293): 0.463 µM
IC50 (C33A): 1.5 µM
IC50 (JAR): 0.886 µM
